Legend:
[1] = molecular target: T1, cGMP-inhibited 3',5'-cyclic phosphodiesterase 3A (Homo sapiens, UniProt Q14432); assay: Inhibition of human PDE3A by HTRF assay
[2] = system: Platelet; assay: Inhibition of platelet aggregation in human platelet-rich plasma pre-incubated for 5 mins before ADP stimulation for 10 mins; format: functional, cell-based
[3] = molecular target: DNA-dependent protein kinase catalytic subunit (Homo sapiens, UniProt P78527); assay: Inhibition of human DNA-PK catalytic subunit at 10 uM using DNA and [EPPLSQEAFADLWKK] peptide substrate by HTRF assay
[4] = molecular target: T1, cGMP-inhibited 3',5'-cyclic phosphodiesterase 3A; assay: Inhibition of human PDE3A at 10 uM by HTRF assay
[5] = molecular target: Phosphatidylinositol 4,5-bisphosphate 3-kinase catalytic subunit alpha isoform (Homo sapiens) (UniProt P42336); assay: Inhibition of wild type PI3K-alpha (unknown origin) assessed as decrease in ATP consumption at 10 uM using phosphotidylinositol bisphosphate and ATP measured after 60 mins by Kinase-Glo reagent based luminescence assay
[6] = molecular target: Phosphatidylinositol 4,5-bisphosphate 3-kinase catalytic subunit beta isoform (Homo sapiens) (UniProt P42338); assay: Inhibition of wild type PI3K-beta (unknown origin) assessed as decrease in ATP consumption at 10 uM using phosphotidylinositol bisphosphate and ATP measured after 60 mins by Kinase-Glo reagent based luminescence assay
[7] = molecular target: Phosphatidylinositol 4,5-bisphosphate 3-kinase catalytic subunit gamma isoform (Homo sapiens) (UniProt P48736); assay: Inhibition of wild type PI3K-gamma (unknown origin) assessed as decrease in ATP consumption at 10 uM using phosphotidylinositol bisphosphate and ATP measured after 60 mins by Kinase-Glo reagent based luminescence assay
[8] = molecular target: T2, Phosphatidylinositol 4,5-bisphosphate 3-kinase catalytic subunit delta isoform (Homo sapiens) (UniProt O00329); assay: Inhibition of wild type PI3K-delta (unknown origin) assessed as decrease in ATP consumption at 10 uM using phosphotidylinositol bisphosphate and ATP measured after 60 mins by Kinase-Glo reagent based luminescence assay
T2 sequence (whole entry): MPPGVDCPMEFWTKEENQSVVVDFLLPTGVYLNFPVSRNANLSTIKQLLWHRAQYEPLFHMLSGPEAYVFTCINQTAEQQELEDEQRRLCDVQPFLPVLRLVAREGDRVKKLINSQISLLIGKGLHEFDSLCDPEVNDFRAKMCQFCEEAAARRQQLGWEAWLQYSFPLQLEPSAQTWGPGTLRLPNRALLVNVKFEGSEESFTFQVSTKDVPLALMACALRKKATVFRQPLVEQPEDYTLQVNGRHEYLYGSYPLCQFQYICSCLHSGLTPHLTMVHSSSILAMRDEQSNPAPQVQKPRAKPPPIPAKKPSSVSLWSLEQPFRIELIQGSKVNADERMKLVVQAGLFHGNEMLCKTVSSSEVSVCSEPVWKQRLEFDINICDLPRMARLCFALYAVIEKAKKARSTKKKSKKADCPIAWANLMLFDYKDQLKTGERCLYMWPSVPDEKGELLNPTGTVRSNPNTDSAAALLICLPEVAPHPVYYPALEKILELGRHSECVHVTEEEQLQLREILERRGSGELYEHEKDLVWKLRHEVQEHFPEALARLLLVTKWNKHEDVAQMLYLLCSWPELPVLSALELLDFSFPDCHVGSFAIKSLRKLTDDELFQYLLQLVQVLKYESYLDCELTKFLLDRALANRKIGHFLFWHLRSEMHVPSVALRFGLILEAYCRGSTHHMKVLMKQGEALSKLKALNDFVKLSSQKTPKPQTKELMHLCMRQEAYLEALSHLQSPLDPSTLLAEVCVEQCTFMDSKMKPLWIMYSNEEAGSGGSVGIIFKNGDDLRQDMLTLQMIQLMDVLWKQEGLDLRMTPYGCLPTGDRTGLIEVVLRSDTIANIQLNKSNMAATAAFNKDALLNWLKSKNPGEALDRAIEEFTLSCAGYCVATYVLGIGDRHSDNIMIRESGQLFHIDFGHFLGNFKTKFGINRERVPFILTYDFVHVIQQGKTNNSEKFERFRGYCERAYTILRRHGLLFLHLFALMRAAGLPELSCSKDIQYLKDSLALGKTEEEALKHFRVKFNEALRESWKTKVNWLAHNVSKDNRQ

[9] = molecular target: T3, Phosphatidylinositol 4,5-bisphosphate 3-kinase catalytic subunit delta isoform (Homo sapiens, UniProt O00329); assay: Inhibition of wild type PI3K-delta (unknown origin) assessed as decrease in ATP consumption using phosphotidylinositol bisphosphate and ATP measured after 60 mins by Kinase-Glo reagent based luminescence assay
T3 sequence (O00329 whole entry): T2 sequence (whole entry)

Phosphatidylinositol 4,5-bisphosphate 3-kinase catalytic subunit gamma isoform (Homo sapiens), sequence (P48736 whole entry, looked up, canonical isoform): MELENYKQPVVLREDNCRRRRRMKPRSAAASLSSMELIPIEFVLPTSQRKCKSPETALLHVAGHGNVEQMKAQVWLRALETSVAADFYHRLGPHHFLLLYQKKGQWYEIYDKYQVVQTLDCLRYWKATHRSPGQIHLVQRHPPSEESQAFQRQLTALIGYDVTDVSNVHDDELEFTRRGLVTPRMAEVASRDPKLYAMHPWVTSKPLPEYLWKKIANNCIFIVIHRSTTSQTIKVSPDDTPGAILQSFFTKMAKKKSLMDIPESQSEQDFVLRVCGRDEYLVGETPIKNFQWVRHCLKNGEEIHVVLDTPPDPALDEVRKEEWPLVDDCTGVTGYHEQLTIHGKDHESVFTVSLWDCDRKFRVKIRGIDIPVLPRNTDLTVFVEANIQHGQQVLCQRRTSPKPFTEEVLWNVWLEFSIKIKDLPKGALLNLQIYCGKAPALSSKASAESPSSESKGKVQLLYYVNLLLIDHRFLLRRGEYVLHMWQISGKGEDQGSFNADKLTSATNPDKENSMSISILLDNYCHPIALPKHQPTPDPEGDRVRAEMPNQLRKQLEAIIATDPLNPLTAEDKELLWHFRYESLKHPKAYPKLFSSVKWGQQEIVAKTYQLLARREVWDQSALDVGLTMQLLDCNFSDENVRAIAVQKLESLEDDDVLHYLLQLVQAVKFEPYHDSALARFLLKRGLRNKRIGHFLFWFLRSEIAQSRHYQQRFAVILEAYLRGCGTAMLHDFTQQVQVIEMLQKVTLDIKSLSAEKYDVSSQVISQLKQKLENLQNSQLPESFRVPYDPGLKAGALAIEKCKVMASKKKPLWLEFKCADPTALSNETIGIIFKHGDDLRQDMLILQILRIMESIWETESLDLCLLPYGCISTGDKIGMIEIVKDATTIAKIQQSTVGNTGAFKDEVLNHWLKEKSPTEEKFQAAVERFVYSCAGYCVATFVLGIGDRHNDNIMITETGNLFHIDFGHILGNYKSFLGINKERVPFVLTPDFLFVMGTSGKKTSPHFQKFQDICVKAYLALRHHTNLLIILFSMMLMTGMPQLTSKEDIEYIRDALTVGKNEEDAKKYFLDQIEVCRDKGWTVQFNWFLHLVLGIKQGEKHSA
Phosphatidylinositol 4,5-bisphosphate 3-kinase catalytic subunit beta isoform (Homo sapiens), sequence (P42338 whole entry, looked up, canonical isoform): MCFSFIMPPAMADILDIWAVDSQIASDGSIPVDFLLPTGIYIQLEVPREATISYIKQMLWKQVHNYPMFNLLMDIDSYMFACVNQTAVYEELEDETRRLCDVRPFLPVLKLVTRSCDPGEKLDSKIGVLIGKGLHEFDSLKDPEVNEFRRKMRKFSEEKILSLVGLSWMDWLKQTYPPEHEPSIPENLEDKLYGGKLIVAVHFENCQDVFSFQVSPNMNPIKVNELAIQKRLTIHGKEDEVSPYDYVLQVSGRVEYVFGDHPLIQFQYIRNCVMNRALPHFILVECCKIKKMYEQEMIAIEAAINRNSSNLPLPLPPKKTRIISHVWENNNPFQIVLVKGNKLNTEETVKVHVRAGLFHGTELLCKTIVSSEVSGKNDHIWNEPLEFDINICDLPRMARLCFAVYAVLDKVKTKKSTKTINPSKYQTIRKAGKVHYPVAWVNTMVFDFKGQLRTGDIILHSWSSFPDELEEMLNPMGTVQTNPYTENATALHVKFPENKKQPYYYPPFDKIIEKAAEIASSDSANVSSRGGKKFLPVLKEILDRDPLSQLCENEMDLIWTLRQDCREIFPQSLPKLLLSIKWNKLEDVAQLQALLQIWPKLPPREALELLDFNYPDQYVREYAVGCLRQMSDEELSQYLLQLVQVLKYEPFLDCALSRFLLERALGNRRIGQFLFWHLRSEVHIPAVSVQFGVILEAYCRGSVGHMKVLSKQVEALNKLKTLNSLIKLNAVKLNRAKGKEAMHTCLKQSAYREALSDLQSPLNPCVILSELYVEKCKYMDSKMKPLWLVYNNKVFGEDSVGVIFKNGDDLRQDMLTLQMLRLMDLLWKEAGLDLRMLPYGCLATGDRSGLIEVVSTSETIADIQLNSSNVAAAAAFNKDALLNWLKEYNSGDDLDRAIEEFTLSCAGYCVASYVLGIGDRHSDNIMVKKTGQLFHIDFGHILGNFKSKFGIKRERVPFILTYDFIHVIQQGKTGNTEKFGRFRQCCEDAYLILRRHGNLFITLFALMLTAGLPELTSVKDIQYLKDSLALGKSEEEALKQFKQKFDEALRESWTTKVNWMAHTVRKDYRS
T1 sequence (Q14432 whole entry): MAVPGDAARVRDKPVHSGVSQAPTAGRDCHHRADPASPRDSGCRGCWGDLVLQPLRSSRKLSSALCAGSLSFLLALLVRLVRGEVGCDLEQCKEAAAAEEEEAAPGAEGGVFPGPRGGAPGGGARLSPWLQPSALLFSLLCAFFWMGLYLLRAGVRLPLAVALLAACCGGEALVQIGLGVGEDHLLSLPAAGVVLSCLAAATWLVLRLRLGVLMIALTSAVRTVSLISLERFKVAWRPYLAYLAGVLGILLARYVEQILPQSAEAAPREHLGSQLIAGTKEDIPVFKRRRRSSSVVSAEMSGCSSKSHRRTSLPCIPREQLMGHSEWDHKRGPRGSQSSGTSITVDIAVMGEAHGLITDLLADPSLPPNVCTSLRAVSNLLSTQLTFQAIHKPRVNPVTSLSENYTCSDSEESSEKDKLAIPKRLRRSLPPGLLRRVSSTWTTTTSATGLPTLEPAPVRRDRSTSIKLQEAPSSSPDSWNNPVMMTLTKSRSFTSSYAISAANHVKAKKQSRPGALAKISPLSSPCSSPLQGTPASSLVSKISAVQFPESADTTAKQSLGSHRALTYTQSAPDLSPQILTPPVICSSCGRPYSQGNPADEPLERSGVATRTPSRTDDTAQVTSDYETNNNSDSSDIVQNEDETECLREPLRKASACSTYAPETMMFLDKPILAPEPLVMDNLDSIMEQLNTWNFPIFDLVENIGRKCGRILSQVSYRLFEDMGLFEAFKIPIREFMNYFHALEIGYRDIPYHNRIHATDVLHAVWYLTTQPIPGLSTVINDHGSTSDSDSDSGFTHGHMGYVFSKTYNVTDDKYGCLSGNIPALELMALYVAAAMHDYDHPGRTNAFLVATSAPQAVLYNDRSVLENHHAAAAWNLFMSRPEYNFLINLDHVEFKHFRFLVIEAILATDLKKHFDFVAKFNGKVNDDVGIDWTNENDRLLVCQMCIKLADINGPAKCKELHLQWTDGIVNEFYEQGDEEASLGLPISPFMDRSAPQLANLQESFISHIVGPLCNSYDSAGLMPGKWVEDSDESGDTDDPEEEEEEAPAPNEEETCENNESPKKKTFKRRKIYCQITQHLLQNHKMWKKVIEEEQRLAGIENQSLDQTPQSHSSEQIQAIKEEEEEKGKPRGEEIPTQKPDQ
Phosphatidylinositol 4,5-bisphosphate 3-kinase catalytic subunit alpha isoform (Homo sapiens), sequence (P42336 whole entry, canonical isoform): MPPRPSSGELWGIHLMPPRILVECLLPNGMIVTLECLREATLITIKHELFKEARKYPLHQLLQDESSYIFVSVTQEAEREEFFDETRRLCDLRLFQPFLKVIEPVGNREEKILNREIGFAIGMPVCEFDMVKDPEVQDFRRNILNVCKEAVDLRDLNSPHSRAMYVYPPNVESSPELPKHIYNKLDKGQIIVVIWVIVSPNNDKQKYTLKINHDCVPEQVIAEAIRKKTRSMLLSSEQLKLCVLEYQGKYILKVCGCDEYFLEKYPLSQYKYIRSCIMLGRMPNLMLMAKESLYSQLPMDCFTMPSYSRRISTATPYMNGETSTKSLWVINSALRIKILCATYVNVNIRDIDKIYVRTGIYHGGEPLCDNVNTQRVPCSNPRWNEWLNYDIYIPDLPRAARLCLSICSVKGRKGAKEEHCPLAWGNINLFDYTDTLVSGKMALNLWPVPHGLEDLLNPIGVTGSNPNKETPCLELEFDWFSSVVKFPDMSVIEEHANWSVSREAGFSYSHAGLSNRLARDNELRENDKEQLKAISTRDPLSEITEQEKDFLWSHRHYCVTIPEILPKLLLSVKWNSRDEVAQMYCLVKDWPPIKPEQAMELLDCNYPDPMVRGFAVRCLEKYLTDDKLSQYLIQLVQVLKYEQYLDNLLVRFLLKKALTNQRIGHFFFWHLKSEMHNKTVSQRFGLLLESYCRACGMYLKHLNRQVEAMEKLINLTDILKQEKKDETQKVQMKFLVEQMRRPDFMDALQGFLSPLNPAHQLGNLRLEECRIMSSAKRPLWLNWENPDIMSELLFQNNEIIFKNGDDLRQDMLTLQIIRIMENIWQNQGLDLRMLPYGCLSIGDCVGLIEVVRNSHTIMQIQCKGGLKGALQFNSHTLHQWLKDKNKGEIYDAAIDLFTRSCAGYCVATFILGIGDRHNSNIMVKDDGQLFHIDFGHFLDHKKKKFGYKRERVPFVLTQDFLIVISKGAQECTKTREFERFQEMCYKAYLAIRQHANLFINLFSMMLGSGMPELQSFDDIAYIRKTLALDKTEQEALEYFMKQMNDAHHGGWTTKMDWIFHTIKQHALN

Row | SMILES | IC50 [1] [µM] | IC50 [2] [µM] | inhibition [3] [%] | inhibition [4] [%] | inhibition [5] [%] | inhibition [6] [%] | inhibition [7] [%] | inhibition [8] [%] | IC50 [9] [µM]
1 | CC(C)Cn1c(=O)n(C)c(=O)c2[nH]cnc21 [ISOBUTYLMETHYLXANTHINE] | 7 |  |  |  |  |  |  |  | 
2 | O=c1nc(N2CCOCC2)oc2c(-c3ccccc3)c(OCc3cccnc3)ccc12 |  | 80 | 18 | 50.4 | 57.9 | 64.4 | 25.7 | 85.5 | 7.2
3 | O=c1nc(N2CCOCC2)oc2c(-c3cc4ccccc4s3)c(OCc3ccccn3)ccc12 | 3.01 |  | 47.2 | 77.9 |  |  | -1 | 24.6 | 
4 | O=c1nc(N2CCOCC2)oc2c(-c3cccs3)c(OCc3ccccn3)ccc12 | 2.95 |  | 40.1 | 74.5 | -0.6 | 4.1 | 0.1 | 21.8 | 

Next, values leading:

Row | IC50 [1] [µM] | IC50 [2] [µM] | inhibition [3] [%] | inhibition [4] [%] | inhibition [5] [%] | inhibition [6] [%] | inhibition [7] [%] | inhibition [8] [%] | IC50 [9] [µM] | SMILES
5 | 3.05 |  | 39.7 | 88.8 | -8.1 | -3 | 4.4 | 18 |  | O=c1nc(N2CCOCC2)oc2c(-c3ccsc3)c(OCc3ccccn3)ccc12
6 |  |  | 32.7 | 43.6 | 34.6 | 53.2 | 20 | 64.9 | 10.1 | O=c1nc(N2CCOCC2)oc2c(-c3ccc(Cl)cc3)c(OCc3cccnc3)ccc12
7 |  |  | 44.4 | 28 | 56.3 | 39.7 | -8.6 | 88.8 | 2.7 | COc1ccc(-c2c(OCCBr)ccc3c(=O)nc(N4CCOCC4)oc23)cc1
8 |  | 10 | 9.8 | 11.4 | 24 | 31.8 | 4.3 | 53.4 |  | CN1CCN(CCOc2ccc3c(=O)nc(N4CCOCC4)oc3c2-c2ccccc2)CC1
9 | 2.75 |  | 25.7 | 71.3 | 59.2 | 66.4 | 38.1 | 88.9 | 4 | O=c1nc(N2CCOCC2)oc2c(-c3ccccc3)c(OCc3ccccn3)ccc12

— ChEMBL document CHEMBL4043200, “Synthesis and biological evaluation of 8-aryl-2-morpholino-7-O-substituted benzo[e][1,3]oxazin-4-ones against DNA-PK, PI3K, PDE3A enzymes and platelet aggregation” (Bioorg Med Chem, 2017)
